Patent US20260269287A1, “ALL-NONAQUEOUS MEMBRANE-FREE FLOW BATTERIES” (University of Cincinnati, priority 2023, published 2026)
Converted amounts (≈) assume the structure as drawn. “Also recorded” adds a separate entry of the source.

How the values were obtained:
Assay type in all cases: physicochemical
[1] = Solubility test of C18-PTZ in FEC/LiTFSI; conditions: in FEC/LiTFSI (1.2 M)
Description: Solubility test. […] The solution was gradually added to a vial containing known amounts of C18-PTZ. Once a clear solution was just obtained, the volume of the electrolyte was determined by an analytical pipette. The solubility of organic compounds was calculated from the ratio of the molar amount to electrolyte volume. These processes are repeated twice, and the averaged values are presented.
Solubility Test. […] The solution was incrementally added to a vial containing known quantities of C18-PTZ. The addition continued until a clear solution was achieved, at which point the volume of the electrolyte was measured using an analytical pipette. Subsequently, the solubility of the organic compounds was calculated by finding the ratio of the molar amount of C18-PTZ to the volume of the electrolyte. This entire process was repeated twice to ensure accuracy, and the averaged values of the solubility were reported as the final result.

[2] = Solubility of catholyte compounds in the three supporting electrolytes of the triphasic system
Description: (§1) Selection of the anode and cathode materials. Achieving a high capacity for RFBs requires the selection of redox-active materials with high potential. In this study, Li metal was selected as the anode because of its low electrochemical potential (−3.04 V vs. a standard hydrogen electrode), high energy density, and theoretical capacity (~3,860 mAh/g). Graphite felt (GF) was selected as the cathode owing to its chemical inertness in nonaqueous electrolytes, high electrical conductivity, highly porous structure, and high specific surface area. […] The solubility properties of several redox-active catholyte compounds, including derivatives of phenothiazine, cyclopropenium, 2,2,6,6-tetramethylpiperidinyloxy (TEMPO), anthraquinone (AQ), and ferrocene, were evaluated as the three supporting electrolytes in the triphasic system (FIG. 88). […] The system was evaluated for the potential crossover of 0.5 M C18-PTZ dissolved in the FEC phase. […]
(§2) Selection of the anode and cathode materials. […] The solubility properties of several redox-active catholyte compounds, including derivatives of phenothiazine, cyclopropenium, 2,2,6,6-tetramethylpiperidinyloxy (TEMPO), anthraquinone (AQ), and ferrocene, were evaluated as the three supporting electrolytes in the triphasic system (FIG. 85). […] The system was evaluated for the potential crossover of 0.5 M C18-PTZ dissolved in the FEC phase. […]

[3] = Crossover study of C18-PTZ in the Design-I triphasic system under static conditions (UV-visible, CV); conditions: 0.5 M in FEC phase, 10-day period
Description: as §1, §2

[4] = Cyclic voltammetry of C18-PTZ in 0.1 M FEC/LiTFSI
Description: Electrochemical characterization. CV studies were carried out to estimate the electrochemical properties of redox material (C18-PTZ) as well as the crossover of redox-active cathode material before and after long-term battery cycling. For CV measurements, 5 mM of C18-PTZ solution were prepared in 0.1 M FEC/LiTFSI electrolyte. A 3-mm glassy carbon was used as the working electrode and was polished with 50 nm Al2O3 before measurements. Platinum wire (0.5 mm) was used as the counter electrodes. A Ag/Ag^+ electrode was used as the reference electrode.
Electrochemical characterization. For the cyclic voltammetry (CV) measurements, C18-PTZ (5 mM) solutions were prepared in FEC/LiTFSI (0.1 M) electrolyte. A glassy carbon disk (CHI Instrument, 3 mm) was used as the working electrode and was polished with aqueous Al2O3(Pine Research Instrumentation, Inc., […]) before the measurements. A piece of Pt wire (Pine Research Instrumentation, Inc., thickness 0.5 mm, purity 99.99%) was used as the counter electrode while an Ag/Ag^+ (MTI Corp) electrode was used as the reference electrode. The CV measurements were performed using a Bio-Logic potentiostat. The charge/discharge performances were evaluated using Land and Bio-Logic potentiostats.

[5] = RDE linear sweep voltammetry of C18-PTZ in 0.1 M FEC/LiTFSI; conditions: 1 mM in 0.1 M FEC/LiTFSI
Description: To investigate the electrochemical kinetics of C18-PTZ redox molecules, linear sweep voltammetry (LSV) was conducted using the rotating disk electrode (RDE) technique. The LSV curves of C18-PTZ were measured in electrolyte solutions containing 1.0 mM C18-PTZ in 0.1 M FEC/LiTFSI solution, and the results are presented in FIG. 68(a).
Calculation of diffusion coefficient and electron transfer rate. Linear sweep voltammetry (LSV) studies were carried out using a Pine modulated speed rotator with Biologic potentiostats. Rotating disk electrode (RDE, diameter: 5 mm), Pt wire electrode and Ag/Ag^+ electrode were used as the working, counter and reference electrodes, respectively. Before testing, the samples were purged with argon for 10 min. LSV dates were collected at different rotation rates ranging from 100 to 1600 rpm. The diffusion coefficient (Do) of electroactive materials were calculated from the Levich plot using Equation 1.
The kinetic rate constant is calculated by Equation 2.
The LSV investigations were conducted using a Pine modulated speed rotator paired with Biologic potentiostats. […] The diffusion coefficient (D) of electroactive materials was calculated from the Lévich plot using Equation 1. The kinetic rate constant is calculated by Equation 2.

CCCCCCCCCCCCCCCCCCN1c2ccccc2Sc2ccccc21 [C18-PTZ]
solubility [1]: 500 mM (≈ 226 mg/mL) | solubility in TEGDME and NFTTS ([2]; anolyte and intermediate layers of triphasic system): poor solubility | solubility in FEC ([2]; catholyte solvent of triphasic system): high solubility | crossover out of the FEC layer [3]: no significant crossover | redox couple potential ([4]; 5 mM in 0.1 M FEC/LiTFSI): 0.35 V vs. Ag/Ag^+ | electrochemical stability on repeated CV cycling ([4]; FEC/LiTFSI (0.1 M), 50 mV/s, 500 cycles): excellent electrochemical stability; also recorded: high electrochemical stability | peak potential separation ([4]; scan rate 50 mV/s): 68 mV | peak potential separations ([4]; scan rate 50 mV/s, unit not given): ~ 68 | ratio of cathodic peak current (ipc) and anodic peak current (ipa) ([4]; scan rates 50 to 250 mV/s): approximately 1 | kinetic rate constant (k0) [5]: 0.00351 cm/s | diffusion coefficient D ([5]; Levich plot): 6.23×10^−6 cm^2/s
